Like-named read-outs stand apart in the source and are kept apart here. Values belong to the compound of their own block, whether it stands above or below them.
Legend:
506 cell lines = assay: Sensitivity of 506 cell lines to Dasatinib; assay type: cell-based; conditions: FIG. 10
Text: The bar plot indicates the effect of various SRC inhibitors, YES inhibitors, or dual SRC/YES inhibitors on the sensitivity of the cells to inhibition; along with an inhibitor for an unrelated/control kinase WEE1. Each bar represents a different type of inhibitor, which may inhibit SRC, YES, SRC and YES, or WEE1. Bars 1-2 from the left of the plot indicate cells are most sensitive to inhibition when SRC and YES are both inhibited. Bars 3-6 from the left of the plot indicate sensitivity to inhibition for cells treated with SRC inhibitors. Bar 7 from the left of the plot indicates sensitivity to inhibition for cells treated with WEE1 inhibitor. […] from the left of the plot also indicate sensitivity to inhibition for cells treated with SRC inhibitors. Bar 9 from the left of the plot indicates sensitivity to inhibition for cells treated with YES1 inhibitor. Bar 10 from the left of the plot indicates sensitivity to inhibition for cells treated with WEE1 inhibitor. Increased sensitivity to inhibition is observed in SRC and YES dual inhibition, compared to SRC-only inhibition or YES-only inhibition. In FIG. 10, 506 cell lines are compared for sensitivity to Dasatinib (SRC and YES inhibitor). 119 of the 506 cell lines are more sensitive to Dasatinib than MDA-MB-231 cells. […] Cell lines that are sensitive to Dasatinib are more sensitive to other dual inhibitors of YES and SRC.

[1] = system: MDA-MB-231 tumor xenografts; assay: MDA-MB-231 tumor xenograft, tumor volume
RON [2] = molecular target: T1, RON (Homo sapiens, UniProt Q04912); assay: RON inhibition (percent activity vs log concentration)
Text: (§1) The plot indicates percent activity of RON or cMet as a function of the log concentration of the compound (in moles, M). From the plot, the IC50 values may be obtained.

cMet = cMet (Homo sapiens, UniProt P08581); assay: cMet inhibition (percent activity vs log concentration)
Text: as §1

RON [3] = molecular target: T1, RON; assay: RON dissociation constant (Kd); assay type: binding
Text: The four compounds “ENG-009”, “ENG-015”, “ENG-018”, and“ENG-035” are shown, along with their Ron and cMet inhibitory activities.

MDA-MB-231 cells = assay: MDA-MB-231 cell viability as a function of SU-6656 concentration, with or without Dasatinib co-treatment; assay type: cell-based; conditions: Homo sapiens, MDA-MB-231, MDA-MB-231, read-out: concentration of SU-6656 at 50% viability
Procedure: An additional approach to validate the CombiGEM results (dual SRC and YES knockout using Cas and DNA constructs) can include using small molecule inhibitors to reduce the function of SRC or YES. […] One group of cells is treated with only the YES inhibitor and the vehicle control (DMSO only). Two groups of cells are co-treated with Dasatinib, a SRC inhibitor, at a concentration of 500 nM or 1 μM. The control group (DMSO only, no Dasatinib) has a 50% viability at a concentration of 68.6 μM of SU-6656, compared to 20.4 μM for the cells co-treated with 500 nM Dasatinib and 12.7 μM for the cells co-treated with 1 μM Dasatinib.

cancer cell lines = assay: Cellular IC50 (GI50) of RON inhibitors with or without Dasatinib in cancer cell lines; assay type: cell-based; conditions: all tested cell lines; co-administered with Dasatinib
Text: FIGS. 12A-12C show additional example data of a small molecule approach to inhibit SRC and RON in cancer cells. As described herein, one approach to validate the CombiGEM results (dual SRC and RON knockout using Cas and DNA constructs) can include using small molecule inhibitors to reduce function of SRC or RON. […] FIG. 12B and FIG. 12C show plots of GI50 as a function of treatment with RON inhibitors Foretinib or a Met/Ron inhibitor, respectively, co-administered with Dasatinib.

Sequence of cMet (P08581 25-1390): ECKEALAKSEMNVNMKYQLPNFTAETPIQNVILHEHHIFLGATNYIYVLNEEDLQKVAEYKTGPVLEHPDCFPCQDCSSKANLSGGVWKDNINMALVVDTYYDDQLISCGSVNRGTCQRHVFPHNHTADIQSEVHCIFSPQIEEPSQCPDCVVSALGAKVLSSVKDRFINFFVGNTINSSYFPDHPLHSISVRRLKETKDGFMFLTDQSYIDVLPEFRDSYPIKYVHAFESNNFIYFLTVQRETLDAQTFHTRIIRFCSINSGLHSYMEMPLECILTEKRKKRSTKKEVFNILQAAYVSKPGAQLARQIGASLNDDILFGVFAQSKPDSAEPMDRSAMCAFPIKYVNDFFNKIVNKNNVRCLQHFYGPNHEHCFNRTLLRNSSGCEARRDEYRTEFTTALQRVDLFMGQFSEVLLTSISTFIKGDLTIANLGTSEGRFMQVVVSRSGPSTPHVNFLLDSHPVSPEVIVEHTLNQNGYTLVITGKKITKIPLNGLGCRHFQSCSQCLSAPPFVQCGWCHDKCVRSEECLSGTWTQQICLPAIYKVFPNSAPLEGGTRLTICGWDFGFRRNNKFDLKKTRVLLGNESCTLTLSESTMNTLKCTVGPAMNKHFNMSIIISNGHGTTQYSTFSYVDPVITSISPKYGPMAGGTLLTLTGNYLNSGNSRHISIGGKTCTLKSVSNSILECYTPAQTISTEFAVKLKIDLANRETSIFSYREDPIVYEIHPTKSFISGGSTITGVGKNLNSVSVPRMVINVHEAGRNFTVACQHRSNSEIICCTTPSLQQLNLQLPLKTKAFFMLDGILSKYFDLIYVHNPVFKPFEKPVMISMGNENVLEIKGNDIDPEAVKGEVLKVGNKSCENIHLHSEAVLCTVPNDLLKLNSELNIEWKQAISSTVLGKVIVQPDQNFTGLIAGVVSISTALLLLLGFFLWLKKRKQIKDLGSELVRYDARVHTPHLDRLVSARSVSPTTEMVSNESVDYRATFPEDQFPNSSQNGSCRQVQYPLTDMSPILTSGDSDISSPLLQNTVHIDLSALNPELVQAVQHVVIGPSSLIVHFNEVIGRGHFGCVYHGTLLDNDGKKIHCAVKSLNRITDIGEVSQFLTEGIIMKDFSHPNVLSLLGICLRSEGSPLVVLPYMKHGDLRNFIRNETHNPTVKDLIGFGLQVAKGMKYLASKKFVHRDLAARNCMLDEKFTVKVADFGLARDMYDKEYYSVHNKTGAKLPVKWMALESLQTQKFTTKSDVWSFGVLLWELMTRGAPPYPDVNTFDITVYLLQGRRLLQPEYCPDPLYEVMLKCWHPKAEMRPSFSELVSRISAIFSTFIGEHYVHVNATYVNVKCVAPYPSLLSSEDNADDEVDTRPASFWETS
T1 sequence (Q04912 25-1400): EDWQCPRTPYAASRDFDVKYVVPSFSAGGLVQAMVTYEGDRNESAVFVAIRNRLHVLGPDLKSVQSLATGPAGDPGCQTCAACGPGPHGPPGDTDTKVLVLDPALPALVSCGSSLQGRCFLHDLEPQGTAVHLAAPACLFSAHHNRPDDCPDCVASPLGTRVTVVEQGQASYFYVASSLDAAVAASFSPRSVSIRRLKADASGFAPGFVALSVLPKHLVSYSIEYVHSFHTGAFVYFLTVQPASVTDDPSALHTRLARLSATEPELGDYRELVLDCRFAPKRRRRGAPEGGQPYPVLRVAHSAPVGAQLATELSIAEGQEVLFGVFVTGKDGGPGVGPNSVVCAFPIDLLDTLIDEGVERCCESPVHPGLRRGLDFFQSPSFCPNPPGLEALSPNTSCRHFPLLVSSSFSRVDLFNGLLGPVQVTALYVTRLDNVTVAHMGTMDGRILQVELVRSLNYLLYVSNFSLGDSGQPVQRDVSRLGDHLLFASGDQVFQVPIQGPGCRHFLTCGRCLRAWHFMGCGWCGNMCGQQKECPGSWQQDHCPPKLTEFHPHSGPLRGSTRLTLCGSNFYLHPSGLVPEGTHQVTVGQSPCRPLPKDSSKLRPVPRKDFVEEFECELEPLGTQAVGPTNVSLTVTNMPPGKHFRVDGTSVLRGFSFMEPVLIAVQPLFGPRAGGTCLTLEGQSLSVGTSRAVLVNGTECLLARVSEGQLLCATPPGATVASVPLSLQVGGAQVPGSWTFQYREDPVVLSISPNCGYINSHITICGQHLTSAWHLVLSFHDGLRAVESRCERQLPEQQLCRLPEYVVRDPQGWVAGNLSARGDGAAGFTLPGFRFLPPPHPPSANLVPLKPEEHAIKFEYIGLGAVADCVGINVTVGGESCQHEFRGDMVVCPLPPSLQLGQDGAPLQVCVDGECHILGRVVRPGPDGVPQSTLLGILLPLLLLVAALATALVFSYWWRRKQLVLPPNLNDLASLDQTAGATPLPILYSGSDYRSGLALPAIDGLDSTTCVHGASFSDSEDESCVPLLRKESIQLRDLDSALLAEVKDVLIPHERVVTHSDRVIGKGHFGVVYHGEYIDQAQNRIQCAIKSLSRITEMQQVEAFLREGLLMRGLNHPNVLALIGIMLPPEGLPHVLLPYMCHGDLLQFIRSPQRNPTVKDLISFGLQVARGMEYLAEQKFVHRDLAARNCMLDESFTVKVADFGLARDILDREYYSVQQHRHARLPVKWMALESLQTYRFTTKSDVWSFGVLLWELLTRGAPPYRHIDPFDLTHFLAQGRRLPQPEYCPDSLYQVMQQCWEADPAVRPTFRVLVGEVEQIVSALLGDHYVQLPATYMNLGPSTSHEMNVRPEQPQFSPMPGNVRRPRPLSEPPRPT

Compound: Cc1nc(Nc2ncc(C(=O)Nc3c(C)cccc3Cl)s2)cc(N2CCN(CCO)CC2)n1.O [Dasatinib, N-(2-chloro-6-methylphenyl)-2-[[6-[4-(2-hydroxyethyl)-1-piperazinyl]-2-methyl-4-pyrimidinyl]amino]-5-thiazole carboxamide monohydrate]
number of the 506 cell lines more sensitive to Dasatinib than MDA-MB-231 cells (506 cell lines): 119
tumor growth compared to vehicle control ([1]; SRC inhibitor only, Dasatinib 10 mpk): slightly lower compared to the vehicle control

IC50 (RON [2]): 1.6 nM
selectivity for RON over cMet (cMet IC50/RON IC50) (RON [2]): approximately 10 fold
Compound: CCN1CCN(CCCOc2cc3nccc(Oc4c(F)cc(NC(=O)NN5C(=O)CSC5c5c(F)cccc5F)cc4F)c3cc2OC)CC1 (stereo not shown) [ENG-013, 1-(2-(2,6-difluorophenyl)-4-oxothiazolidin-3-yl)-3-(4-((7-(3-(4-ethylpiperazin-1-yl)propoxy)-6-methoxyquinolin-4-yl)oxy)-3,5-difluorophenyl)urea]

IC50 (RON [2]): 222 to 291 nM
cMet inhibition (in words) (cMet): inactive
Compound: Cn1cnc(-c2nc3c(Oc4ccc(NC(=O)c5cnn(-c6ccccc6)c5C(F)(F)F)cc4F)ncnc3s2)c1 [ENG-009, N-(3-fluoro-4-((2-(1-methyl-1H-imidazol-4-yl)thiazolo[5,4-d]pyrimidin-7-yl)oxy)phenyl)-1-phenyl-5-(trifluoromethyl)-1H-pyrazole-4-carboxamide]

Kd (RON [3]): 43 nM
selectivity for RON over cMet (cMet IC50/RON IC50) (RON [2]): ~2.3 fold
Compound: Cn1cnc(-c2nc3nccc(Oc4ccc(NC(=O)c5cnn(-c6ccccc6)c5C(F)(F)F)cc4F)c3s2)c1 [ENG-035, N-(3-fluoro-4-((2-(1-methyl-1H-imidazol-4-yl)thiazolo[4,5-b]pyridin-7-yl)oxy)phenyl)-1-phenyl-5-(trifluoromethyl)-1H-pyrazole-4-carboxamide]

IC50 (MDA-MB-231 cells; DMSO only, no Dasatinib): 68600 nM
IC50 (MDA-MB-231 cells; co-treated with 500 nM Dasatinib): 20400 nM
IC50 (MDA-MB-231 cells; co-treated with 1 μM Dasatinib): 12700 nM
Compound: CN(C)S(=O)(=O)c1ccc2c(c1)/C(=C/c1cc3c([nH]1)CCCC3)C(=O)N2 [SU-6656, (3Z)-N,N-Dimethyl-2-oxo-3-(4,5,6,7-tetrahydro-1H-indol-2-ylmethylidene)-2,3-dihydro-1H-indole-5-sulfonamide]

IC50 (RON [2]): 8.5 nM
selectivity for RON over cMet (cMet IC50/RON IC50) (RON [2]; ratio): 0.9
IC50 (cMet): 7.3 nM
Compound: CCOc1ccn(-c2ccc(F)cc2)c(=O)c1C(=O)Nc1ccc(Oc2ccnc(N)c2Cl)c(F)c1 [BMS777607, N-[4-[(2-amino-3-chloro-4-pyridinyl)oxy]-3-fluorophenyl]-4-ethoxy-1-(4-fluorophenyl)-2-oxo-3-pyridinecarboxamide]
tumor growth compared to vehicle control ([1]; RON inhibitor only, BMS777607 20 mpk): slightly lower compared to the vehicle control
potency (GI50) of RON inhibitor in the presence of Dasatinib vs its absence (DMSO) (cancer cell lines): potency (lower GI50) is greater for the RON inhibitor in the presence of Dasatinib than in its absence

IC50 (RON [2]): 8600 nM
Compound: CC1=C(C#N)C(c2ccc3[nH]nc(OCCOC(C)C)c3c2)C(C#N)=C(C)N1 [tool compound 2, 4-(3-(2-isopropoxyethoxy)-1H-indazol-5-yl)-2,6-dimethyl-1,4-dihydropyridine-3,5-dicarbonitrile]

Compound: COc1cc2c(Oc3ccc(NC(=O)C4(C(=O)Nc5ccc(F)cc5)CC4)cc3F)ccnc2cc1OCCCN1CCOCC1 [Foretinib, N1′-[3-fluoro-4-[[6-methoxy-7-(3-morpholinopropoxy)-4-quinolyl]oxy]phenyl]-N1-(4-fluorophenyl)cyclopropane-1,1-dicarboxamide]
potency (GI50) of RON inhibitor in the presence of Dasatinib vs its absence (DMSO) (cancer cell lines): potency (lower GI50) is greater for the RON inhibitor in the presence of Dasatinib than in its absence

IC50 (RON [2]): 2.8 nM
selectivity for RON over cMet (cMet IC50/RON IC50) (RON [2]): approximately 50 fold
IC30 for RON (RON [2]; printed as IC30): 2.8 nM
selectivity for RON over cMet (cMet IC50/RON IC50) (RON [2]; ratio): > 47
IC50 (cMet): 133 nM
Compound: Cn1cnc(-c2cc3nccc(Oc4ccc(NC(=O)c5cnn(-c6ccccc6)c5C(F)(F)F)cc4F)c3cn2)c1 [ENG-015, N-(3-fluoro-4-((7-(1-methyl-1H-imidazol-4-yl)-1,6-naphthyridin-4-yl)oxy)phenyl)-1-phenyl-5-(trifluoromethyl)-1H-pyrazole-4-carboxamide]

RON inhibition (in words) (RON [2]): relatively inactive
cMet inhibition (in words) (cMet): relatively inactive
Compound: Cn1cnc(-c2ccc3c(Oc4ccc(NC(=O)c5cnn(-c6ccccc6)c5C(F)(F)F)cc4F)n[nH]c3c2)c1 [ENG-018, N-(3-fluoro-4-((6-(1-methyl-1H-imidazol-4-yl)-1H-indazol-3-yl)oxy)phenyl)-1-phenyl-5-(trifluoromethyl)-1H-pyrazole-4-carboxamide]

Source: US20220356494A1, “METHODS AND COMPOSITIONS FOR TREATING CANCER” (Engine Biosciences Pte. Ltd., priority 2019, published 2022)
